pEC50: −log10 of the molar value. “And” between values parts separate entries of the source, which are not always exact repeats. Identical values can stand only once. Like-named read-outs stand apart in the source and are kept apart here.
What was measured:
Ae. aegypti NPYLR7 = Ae. aegypti NPYLR7 (Aedes aegypti, UniProt U5N1H5); assay: In vitro calcium (GCaMP6s) FLIPR assay in HEK293T cells transfected with NPYLR7; type: cell-based; settings: for in vitro potency (in words): relative to reference compound TDI-012631; for RFU: assay date 1/11/20 plate 1, duplicate wells, listed as TDI-012631-CL-1
Ae. aegypti NPYLR7, sequence (U5N1H5 entry or part of it): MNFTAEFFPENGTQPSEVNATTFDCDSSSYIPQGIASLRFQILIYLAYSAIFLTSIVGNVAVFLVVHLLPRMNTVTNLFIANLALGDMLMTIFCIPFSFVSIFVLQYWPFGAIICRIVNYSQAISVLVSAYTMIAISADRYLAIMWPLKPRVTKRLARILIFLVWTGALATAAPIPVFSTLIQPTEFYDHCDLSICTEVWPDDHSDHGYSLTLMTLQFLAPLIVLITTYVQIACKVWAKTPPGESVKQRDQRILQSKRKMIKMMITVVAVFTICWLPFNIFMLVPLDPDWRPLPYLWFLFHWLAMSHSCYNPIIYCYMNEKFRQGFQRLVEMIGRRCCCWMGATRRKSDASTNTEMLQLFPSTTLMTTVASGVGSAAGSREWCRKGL
In short: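 HEK293T cells transiently co-transfected with GCaMP6s, mouse Gqα15 and NPYLR7; FLIPR imaging every second for 5 min, compound (0–100 μM) added after 30 s baseline in HBSS + 20 mM HEPES. Response normalized to buffer (0%) and 10 μM FMRFa3 (100%); relative EC50 by four-parameter fit, replicates averaged.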

[1] = test system: Aedes aegypti (Orlando strain) females; assay: Host-seeking screening assay (miniport olfactometer); type: in vivo; settings: for Attraction (relative to saline): per-compound value of Fig. 3C; for effect on host-seeking (in words): fed at a dose of 1 μM
In short: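 Fasted Orlando-strain females fed saline meals (400 mM NaHCO3) with 1 mM ATP and test compound at 1 μM final via warmed membrane feeders; lethality counted 24 h post-meal. At 48 h, attraction to human-scented stocking plus 5% CO2 scored over 5 min, normalized to matched saline-fed controls.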

[2] = EC50 of the individual assay date/plate (assay date), read-out: EC50
[3] = Figure 1E Summary, third list (n = 39), read-out: Reported Metric (Summary list)
[4] = relative EC50, percent effect relative to 10 μM FMRFa3, read-out: EC50
[5] = summary EC50 per compound (mean over assay dates), the unit is taken from the neighbouring EC50 (uM) column, read-out: Reported Metric
[6] = fed 1 μM in saline, tested 48 h post-meal

Compound: CNc1nc(NC(=N)N)nc2cc(OCc3ccccc3)c(OC)cc12 [TDI-014184]
- pEC50 (Ae. aegypti NPYLR7; [2]): 6.31
- pEC50 (Ae. aegypti NPYLR7; [3]): 6.31
- activation at 0.0457 µM (Ae. aegypti NPYLR7; HEK-293T, 0.0457 uM, single replicate, normalised response): 8.6%
- activation at 11.1111 µM (Ae. aegypti NPYLR7; HEK-293T, 11.1111 uM, single replicate, normalised response): 91.4%
- pEC50 (Ae. aegypti NPYLR7; [4]): 6.31
- in vitro potency (in words) (Ae. aegypti NPYLR7): significantly improved in vitro potency
- EC50 (Ae. aegypti NPYLR7; [5]): 0.49 µM
- Attraction (relative to saline) [1, 6]: 0.6

Compound: Cc1nc(NC(=N)N)nc2cc(N3CCc4ccccc4C3)ccc12 [TDI-014186]
- pEC50 (Ae. aegypti NPYLR7; [2]): 4.45
- pEC50 (Ae. aegypti NPYLR7; Figure 1E Summary, second list (n = 48), read-out: Reported Metric (Summary list)): 4.45
- pEC50 (Ae. aegypti NPYLR7; [4]): 4.45
- in vitro potency (in words) (Ae. aegypti NPYLR7): lower in vitro potency
- EC50 (Ae. aegypti NPYLR7; [5]): 35.5 µM
- Attraction (relative to saline) [1, 6]: 0.685
- effect on host-seeking (in words) [1]: reduced host-seeking behavior

Compound: COc1ccc2c(C)nc(NC(=N)N)nc2c1 [TDI-012631, reference compound]
- RFU (Ae. aegypti NPYLR7; 0.00169350878084303uM): 71 RFU and 55 RFU
- RFU (Ae. aegypti NPYLR7; 0.00508052634252909uM): 71 RFU and 78 RFU
- RFU (Ae. aegypti NPYLR7; 0.0152415790275873uM): 77 RFU and 71 RFU
- RFU (Ae. aegypti NPYLR7; 0.0457247370827618uM): 80 RFU and 73 RFU
- RFU (Ae. aegypti NPYLR7; 0.137174211248285uM): 64 RFU and 79 RFU
- RFU (Ae. aegypti NPYLR7; 0.411522633744856uM): 90 RFU and 78 RFU
- RFU (Ae. aegypti NPYLR7; 3.7037037037037uM): 273 RFU and 186 RFU
- RFU (Ae. aegypti NPYLR7; 11.1111111111111 uM): 265 RFU and 324 RFU
- RFU (Ae. aegypti NPYLR7; 33.333333 uM): 286 RFU and 301 RFU
- RFU (Ae. aegypti NPYLR7; 100 uM): 368 RFU and 331 RFU
- pEC50 (Ae. aegypti NPYLR7; [3]): 5.39
- pEC50 (Ae. aegypti NPYLR7; Figure 1E, EC50 of the single assay date/plate, read-out: EC50): 5.56 and 5.79 and 5.59 and 5.46 and 5.63 and 4.94 and 5.65 and 5.19
- pEC50 (Ae. aegypti NPYLR7; Figure 1E, metric reported per compound, repeated on every replicate line, read-out: Reported Metric (EC50)): 5.39
- response at 0.0051(uM) (Ae. aegypti NPYLR7; compound 0.0051 uM, single replicate well): -0.02145
- response at 0.0152(uM) (Ae. aegypti NPYLR7; compound 0.0152 uM, single replicate well): 3.235
- response at 0.4115(uM) (Ae. aegypti NPYLR7; compound 0.4115 uM, single replicate well): -1.786
- pEC50 (Ae. aegypti NPYLR7; [4]): 5.39
- EC50 (Ae. aegypti NPYLR7; sheet Figure 3C, unit inferred, read-out: EC50): 4.11 µM
- Host-seeking relative to saline (test compound % host-seeking/average matched saline % host-seeking) ([1]; fed 1 μM in saline, tested 48 h post-meal, individual replicates, listed as TDI-02631): 1.06 and 1
- Attraction (relative to saline) [1, 6]: 0.99
- effect on host-seeking (in words) [1]: not active

Reference: article PMC11212260, “Next-generation neuropeptide Y receptor small-molecule agonists inhibit mosquito-biting behavior” (Parasites & Vectors, 2024)
